Patent US7041636B1, “Composition for counteracting hair loss” (priority 2004, dated 2006)

Test system: dandruff
Test: dandruff removal trials, topical application before shampooing
Assay type: in vivo
Settings: series of trials on subjects; applied twenty minutes before shampooing
From the text: The author of the present inventions has engaged in research, and experimentation in the field of hair care products for a number of years. As a dandruff treatment, they investigated the use of polysorbate 80, procured from the Nourishair Company in the form of a thick gel. […] Based on this experience, they used the product on a number of subjects over a period of ten years. For antiseptic purposes and tactile response, they subsequently decided to add an amount of menthol to the polysorbate 80.

Substance | dandruff removal
polysorbate 60 | worked well
polysorbate 80 | worked well
